Measured values published in paper PMC2031891, “The cyclic nucleotide gated cation channel AtCNGC10 traffics from the ER via Golgi vesicles to the plasma membrane of Arabidopsis root and leaf cells” (BMC Plant Biology, 2007).

Target: T1, AtCNGC10 (AtCNGC10-GFP) (Arabidopsis thaliana, UniProt Q9LNJ0)
T1 construct: gene CNGC10; full-length cDNA fused to EGFP (pNC10kozG) or to EGFP and FLAG (pTGC10F), transiently expressed in HEK293
T1 sequence (Q9LNJ0 1-711): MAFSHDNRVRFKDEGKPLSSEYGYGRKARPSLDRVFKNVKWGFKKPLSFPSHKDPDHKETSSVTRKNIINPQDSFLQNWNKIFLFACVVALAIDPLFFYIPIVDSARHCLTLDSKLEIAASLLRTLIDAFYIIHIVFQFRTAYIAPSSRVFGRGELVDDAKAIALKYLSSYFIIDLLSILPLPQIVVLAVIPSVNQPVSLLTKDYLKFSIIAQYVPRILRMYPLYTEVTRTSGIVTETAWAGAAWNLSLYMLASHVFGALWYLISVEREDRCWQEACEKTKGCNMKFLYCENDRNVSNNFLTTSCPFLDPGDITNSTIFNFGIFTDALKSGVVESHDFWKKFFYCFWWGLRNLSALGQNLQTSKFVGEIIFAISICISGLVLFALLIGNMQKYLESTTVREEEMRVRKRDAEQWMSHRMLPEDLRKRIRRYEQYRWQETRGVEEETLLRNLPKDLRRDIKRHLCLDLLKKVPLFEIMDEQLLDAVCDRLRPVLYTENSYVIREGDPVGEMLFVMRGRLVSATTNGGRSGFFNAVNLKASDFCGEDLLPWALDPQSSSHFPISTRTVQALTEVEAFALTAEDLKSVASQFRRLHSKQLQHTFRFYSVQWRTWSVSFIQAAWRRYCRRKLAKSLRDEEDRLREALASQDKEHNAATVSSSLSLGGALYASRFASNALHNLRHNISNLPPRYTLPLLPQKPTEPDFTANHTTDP
Test: whole-cell patch clamp, HEK293
Type: cell-based
Conditions: 100 uM in bath; 145 mM K+ out / 145 mM N-methyl-D-glucamine in; pH 7.4 bath, 25 C; activator; control was non-transfected cells, no record without the nucleotide described

## CCCC(=O)Nc1nc2c(ncn2[C@@H]2O[C@@H]3COP(=O)(O)O[C@H]3[C@H]2OC(=O)CCC)c(=O)[nH]1 [dibutyryl cGMP]
  whole-cell patch clamp, HEK293: heterologously expressed AtCNGC10 conducted significant inward K^+ currents with the application of dibutyryl cGMP
